Measured values: patent publication US12661357B2, “Use of pyrido[1,2-a]pyrimidone analogue” (GUANGZHOU JOYO PHARMATECH CO., LTD, priority 2021, dated 2026)
Read-outs that look alike come from different tables or passages of the source.

Assays:
[1] = system: KYSE-150 esophageal cancer cells; test: CTG cell proliferation IC50, KYSE-150; assay type: cell-based; conditions: KYSE-150 cells, 72 hours, read-out: Absolute IC50
Excerpt: • 2). IC50 value: the concentration of inhibitor when 50% inhibitory effect was achieved; • 3). CAL-27 and RPMI 2650: head and neck cancer cell models; HepG2: hepatocellular cancer cells. CAL-27, RPMI 2650 and HepG2 cells were purchased from ATCC, where ATCC® No. was CRL-2095™, CCL-30™, HB-8065™, respectively. • 4). Both KYSE-150 and TE-1 were esophageal cancer cell models. The KYSE-150 cell line was purchased from DSMZ (German Collection of Microorganisms and Cell Cultures), and the DSMZ No. was ACC375; the TE-1 cell line was purchased from National Collection of Authenticated Cell Cultures, catalog number: TCHu89. • 5). RPMI 1640/F12 medium was a 1:1 mixture of RPMI 1640 medium and F12 medium. • 6). The percentages in 10% FBS in Table 1 and Table 2 were volume percentages. (2) Reagents • 1). FBS (fetal bovine serum) (purchased from ExCell, product number: FND500); • 2). MEM medium (purchased from Hyclone, product number: SH30024.01; • 3). DMEM medium (purchased from Gibco, product number: C11995500BT); • 4). MEM NEAA (purchased from Gibco, product number: 11140-050); • 5). RPMI1640 Culture medium (purchased from Gibco, product number: 11875-119); • 6). F12 Culture medium (purchased from Gibco, product number: 11765-054); (3) Test Article and Positive Control Article
2. CTG Method was Used to Determine the Cell Proliferation IC50 of the Compound
• Step 1: Cells in exponential growth phase were harvested, and viable cells were counted with a Vi-Cell XR cytometer. The cell suspension was adjusted to an appropriate concentration with medium. 90 μL of cell suspension was added to each well of a 96-well cell culture plate, and the final cell concentration was 1500-6000 cells/well. • Step 2: The initial concentration of administration of compound I is 3 μM, and the initial concentration of administration of the control drug Alpelisib and Cisplatin was 10 μM, serially diluted 3-fold, a total of 9 concentration gradients and a DMSO control, the final concentration of DMSO in each well was 0.1%, placed in a 37° C., 5% CO2 incubator for 72 hours. • Step 3: After 72 hours of drug treatment, 50 μL (½ culture volume) CTG solution that was melted and equilibrated to room temperature was added to each well according to the CTG operation instructions. […] After 10 minutes, the fluorescence signal value was measured with an Envision2104 plate reader. […]
Cell survival rate was calculated using the formula: Vsample/Vvehicle control×100%. Where, Vsample was the reading of the drug treatment group, and Vvehicle control was the average value of the solvent control group. GraphPad Prism 5.0 software was used, and a S-type dosage-survival rate curve was drawn using a nonlinear regression model and IC50 value was calculated.

[2] = system: human-derived colorectal cancer CO-04-0032 subcutaneous xenograft tumor; test: In vivo efficacy, CO-04-0032 subcutaneous xenograft tumor model; parameters: species or system BALB/c nude mice; conditions: oral, once a day for 28 days; for Tumor volume (Day 28): mean ± SEM
Excerpt: Experimental purpose: Study the in vivo efficacy of the test drug on human-derived colorectal cancer CO-04-0032 subcutaneous xenograft tumor model in nude mice.
Experimental design: • (1) Animals: BALB/c nude mice, female, 6 weeks old, weighing 16-18 grams. […] CO-04-0032 was a PDX model of human-derived colon cancer independently developed by WuXi AppTec New Drug Development Co., Ltd. See Table 5 below for the experimental grouping and dosing regimen.

[3] = system: stage IV gastric cancer; test: Gastric cancer clinical trial (Subject 4); assay type: in vivo, human; conditions: 0.7 mg then 0.4 mg once a day
Procedure: Clinical data: Subject 4. The informed consent form was made on Nov. 5, 2019. During the baseline period, examinations such as vital signs, physical examination, ECOG physical strength score, infectious disease markers, blood routine, urine routine, coagulation function, liver function, kidney function, electrolytes, fasting blood glucose, blood lipids, 12-lead electrocardiogram were performed. The tumor was diagnosed as stage IV gastric cancer. The lesions were located in the right lobe of the liver and the right lobe of the posterior liver, and the baseline diameters were 36.4 mm and 33.1 mm. Two surgical regimens, five therapeutic regimens including chemotherapy, anti-angiogenesis inhibitors combined with chemotherapy, and immunotherapy regimens were drug-resistant for subject 4 before medication administration; from Nov. 14, 2019, tablets containing compound I were single administered with a dose of 0.7 mg once a day. The dose of 0.7 mg contained one tablet of compound I with a specification of 0.5 mg and two tablets of compound I with a specification of 0.1 mg. After the subject's safety was confirmed, one week later, from Nov. 20, 2019, the tablets containing 0.7 mg of compound I were single administered, once a day, and the dose of 0.7 mg contained one tablet of compound I with a specification of 0.5 mg and two tablets of compound I with a specification of 0.1 mg. After the first cycle, the dose was reduced to 0.4 mg, single administration, once a day, until Apr. 9, 2020 and the 0.4 mg dose contained four tablets of compound I of 0.1 mg. During the period, examinations such as vital signs, physical examination, blood routine, urine routine, coagulation function, liver function, kidney function, electrolytes, fasting blood glucose, blood lipids, 12-lead electrocardiogram were performed.

COCCOc1cnc2ccc(-c3cnc(OC)c(NS(=O)(=O)c4sc(C)nc4C)c3)cn2c1=O [Compound I]
IC50 ([1]; listed as compound I): < 1000 nM
IC50 [1]: 34 nM
T/C ([2]; 0.1 mg/kg): 52%
TGI ([2]; 0.1 mg/kg): 58%
Tumor volume (Day 28) ([2]; 0.1 mg/kg): 760 ± 136 mm^3
T/C ([2]; 0.2 mg/kg): 39%
TGI ([2]; 0.2 mg/kg): 64%
Tumor volume (Day 28) ([2]; 0.2 mg/kg): 686 ± 171 mm^3
T/C ([2]; 0.4 mg/kg): 30%
TGI ([2]; 0.4 mg/kg): 76%
Tumor volume (Day 28) ([2]; 0.4 mg/kg): 508 ± 116 mm^3
T/C ([2]; 0.6 mg/kg): 19%
TGI ([2]; 0.6 mg/kg): 90%
Tumor volume (Day 28) ([2]; 0.6 mg/kg): 315 ± 74 mm^3
progression-free survival [3]: 5 months
serious side effects [3]: one time of hyperglycemia above grade 3
target lesion tumor change ([3]; second month visit (C2D28)): −9%
